In patent publication US8802675B2, “Neuroprotective multifunctional compounds and pharmaceutical compositions comprising them” (priority 2009, dated 2014):
Several values for one entry are separate records, joined by “and”; a condition that tells them apart may be missing. Identical values can stand only once. Like-named read-outs stand apart in the source and are kept apart here.

Legend:
rat brain MAO-A = molecular target: T1, rat brain MAO-A (Rattus norvegicus, UniProt P21396); experiment: biochemical
T1 construct: from tissue; host or cells: rat brain homogenate
T1 sequence (P21396 1-526): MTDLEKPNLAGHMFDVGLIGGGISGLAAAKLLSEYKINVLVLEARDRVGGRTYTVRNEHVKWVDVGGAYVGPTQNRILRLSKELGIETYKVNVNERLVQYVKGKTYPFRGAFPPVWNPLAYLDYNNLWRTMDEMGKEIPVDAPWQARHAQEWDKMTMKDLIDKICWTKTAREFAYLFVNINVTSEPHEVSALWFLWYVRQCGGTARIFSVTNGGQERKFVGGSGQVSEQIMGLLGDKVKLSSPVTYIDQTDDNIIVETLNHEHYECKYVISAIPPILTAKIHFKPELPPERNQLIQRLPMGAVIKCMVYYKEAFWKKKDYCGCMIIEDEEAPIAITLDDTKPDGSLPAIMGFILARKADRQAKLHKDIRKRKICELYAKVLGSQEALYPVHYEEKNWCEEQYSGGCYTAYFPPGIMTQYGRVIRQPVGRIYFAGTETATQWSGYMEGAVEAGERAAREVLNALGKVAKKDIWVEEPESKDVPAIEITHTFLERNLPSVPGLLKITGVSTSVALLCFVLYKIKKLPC
Protocol: Rats were decapitated and the brains were quickly taken into a pre-weighted ice-cold sucrose buffer (10 mM Tris-HCl buffer, pH 7.4, containing 0.32 M sucrose), and their weights were measured. The brains were homogenized at 0-4° C. in 0.32 M sucrose (one part tissue to 20 parts sucrose) in a Teflon glass homogenizer. The resultant homogenates were used to determine MAO activity. Protein concentration was determined with Bradford reagent at 595 nm, using bovine serum albumin as a standard.
The activity of MAO-A and MAO-B were determined by the adapted method of Tipton & Youdim (Tipton et al. 1983). Briefly, the multifunctional compound tested was added to a suitable dilution of the enzyme preparation (70 μg MAO-B and 150 μg MAO-A) in 0.05 M phosphate buffer (pH 7.4). The mixture was incubated together with 0.05 μM 1-deprenyl, a specific inhibitor of MAO-B (for determination of MAO-A activity in the presence of the test compound) or 0.05 μM clorgyline a specific inhibitor of MAO-A (for determination of MAO-B activity). […] The reaction was stopped with 2M ice-cold citric acid, and the radioactive metabolites (5-hydroxytryptaldehyde and phenylacetaldehyde) were extracted by addition of 2 ml of ethylacetate/toluene (1:1 vol/vol). The radioactivity contained in the organic phase was determined by liquid-scintillation counting in cpm units.
MAO-A and MAO-B activities were determined in rat brain homogenate in vitro following incubation with varying concentrations of the test compounds.
The results are the mean SEM, n=3 in triplicates.

[1] = Metal chelation assay (UV-vis spectra of metal complexes); format: physicochemical; details: 5% NH4Ac, pH=7; for complexation with Cu^2+ or Zn^2+: CuSO4 or ZnCl2, UV-vis; for interaction with Fe: FeCl3 or FeSO4, absorbance at 300 nm
Source text: Metal chelation, particularly iron chelation, is an important precondition for the antioxidative-function of the multi-functional compounds of the invention, because it is the excessive iron stores and iron-mediated generation of free radicals in the brain that are thought to be associated with neurodegenerative diseases. The novel strategy, according to the present invention, for the treatment of neurodegenerative diseases such as Alzheimer's disease is the design of pro-chelators that inhibit AChE with a concomitant release of the active chelators. This novel strategy has advantages over the current chelator strategy since it is capable not only of minimizing the potential toxicity associated with strong chelators such as the 8-hydroxyquinoline derivatives disclosed in WO 2004/041151, which might interfere with healthy metal metabolism in the brain, but it also offers multiple activities against AChE, Aβ aggregation, oxidative stress, and metal (Fe, Cu, Zn) dyshomeostasis in the brain. Therefore, a metal chelation assay was used to confirm that the new multifunctional pro-chelators that comprise an N,N-dialkylcarbamoyl moiety [N(RR′)CO—] linked to the oxygen at position 8 of quinoline would have little to no affinity for metal ions in their pro-drug form. When these pro-chelators bind to cholinesterase or AChE in the brain, the N,N-dialkylcarbamoyl moiety is dissociated, thus unmasking a free hydroxyl group at said position 8 of quinoline, turning the pro-chelators into active chelators, which passivate excess cerebral metal ions and protect neuronal cells against reactive oxygen species (ROS).
A spectrophotometric method was used for measurement of metal complexes of the multifunctional pro-chelators of the invention with metal ions selected from Zn^2+, Cu^2+, Fe^3+ and Fe^2+, and compared to the respective metal complexes of some known iron chelators disclosed in WO 2004/041151.
Thus, the metal chelating function of compound 13 and compound 23 as compared to M30 and HLA20, respectively, was measured by dissolving 0.1 mM or 0.2 mM of the test compounds in 5% NH4Ac, pH=7, in the presence and absence of 0.1 mM or 0.2 mM of the metal salts […], CuSO4, FeCl3 and FeSO4, and measuring the UV-vis spectra (Hewlett-Packard 8450A diode array spectrophotometer) of the various metal complexes formed. The results for M30 and compound 13 are shown in FIGS. 1A and 1B, respectively.

[2] = test system: human SH-SY5Y neuroblastoma cells; experiment: MTT cell viability assay in SH-SY5Y cells; format: cell-based; details: MTT after 48 h incubation
Protocol: Cell culture. Human neuroblastoma SH-SY5Y cells were obtained from American Type Culture Collection (Rockville, Md., USA). Cells were routinely cultured in MEM-Eagle/F-12(HAM) (1:1), containing 10% FCS and a mixture of 2% sodium bicarbonate, 1% penicillin/streptomycin/nystatin and 1% sodium pyruvate. Cell cultures were incubated at 37° C. in a humid 5% CO2-95% air environment.
Twenty-four hours after attachment of the SH-SY5Y cells, the medium was replaced with DMEM containing 0.1% BSA. The test compounds were added to the cells after 1 h of incubation. After 24 h incubation, the cells were subjected to MTT test as previously described (Gassen et al., 1998). The absorption was determined in a Perkin-Elmer Dual Wavelength Eliza-Reader at λ=570/650 nm after automatic subtraction of background readings. The results are expressed as percentage of the untreated control.
The effect of the iron chelators M30 and HLA20 versus that of the pro-chelators 13 and 23, on viability of human SH-SY5Y cells was tested. Human SH-SY5Y neuroblastoma cells were plated in 100-mm culture dishes and cultured in DMEM (4,500 mg/l glucose), containing 10% FCS (fetal calf serum, Bet Haemek, Israel), and 1% of a mixture of penicillin/streptomycin/nystatin. When cells reached the required confluence, they were detached and re-cultured in microtiter plates (96 wells) pre-coated with collagen ([…]), in DMEM with 10% of fetal calf serum (0.5×10^4 cells/well). Cell viability was tested by the 3-(4,5-dimethylthiazol-2-yl)-2,5-diphenyltetrazolium (MTT) assays after 48 h incubation.

[3] = IC50 MAO-A, rat brain homogenate in vitro, mean SEM, n=3 in triplicates

C#CCN(C)Cc1ccc(OC(=O)N(C)CC)c2ncccc12 [Compound 3, 5-((methyl(propargyl)amino)methyl)quinolin-8-yl ethyl(methyl)carbamate] gave an IC50 (rat brain MAO-A; [3]) of less than 100 nM.

For C#CCN(C)Cc1ccc(OC(=O)N2CCCC2)c2ncccc12 [Compound 5, 5-((methyl(propargyl)amino)methyl)quinolin-8-yl pyrrolidine-1-carboxylate], the IC50 (rat brain MAO-A; [3]) was 4.7 to 20 nM and 4.9 nM.

With C#CCN(C)Cc1ccc(OC(=O)N2CCN(Cc3ccccc3)CC2)c2ncccc12 [Compound 13, 5-((methyl(propargyl)amino)methyl)quinolin-8-yl 4-benzyl piperazine-1-carboxylate] the “complexation with Cu^2+ or Zn^2+” value [1] was “little or no complexation”, the “interaction with Fe” value [1] was “weak interaction” and the cell viability ([2]; 10 μM) was “similar”. The cell viability ([2]; 25 μM) was “significantly higher” and the IC50 (rat brain MAO-A; [3]) was 4.7 to 20 nM and 20 nM.

For C#CCC1CCN(Cc2ccc(OC(=O)N(C)C)c3ncccc23)CC1 [Compound 23, 5-((4-(propargyl)piperidin-1-yl)methyl)quinolin-8-yl dimethylcarbamate], the “complexation with Cu^2+ or Zn^2+” value [1] was “little or no complexation”, the “interaction with Fe” value [1] was “weak interaction” and the cell viability ([2]; 10 μM) was “over 75%”. The cell viability ([2]; 25 μM) was “over 75%”, the cell viability ([2]; 50 μM) was 40% and the “inhibitory effect on MAO-A” value (rat brain MAO-A; rat brain homogenate) was “minor to none inhibitory effects”. It also gave an inhibition at 10 µM (rat brain MAO-A; read-out: percent inhibition MAO-A) of 13%.

In the case of C#CCN(C)Cc1ccc(O)c2ncccc12 [M30, reference compound], the “binding of metal ions (shift of absorbance peak)” value ([1]; ZnCl2, CuSO4, FeCl3 and FeSO4) is reported as “binds the respective metal ions”, the cell viability ([2]; 10 μM) is reported as “similar” and the IC50 (rat brain MAO-A) is reported as 37 ± 20 nM.
